The text below walks through data of patent US9260413B2, “Inhibitors of catechol O-methyl transferase and their use in the treatment of psychotic disorders” (Merck Sharp & Dohme Corp., priority 2013, dated 2016).

pIC50: −log10 of the molar value. Where two headings read alike, the source gives them in different places.

One may read the pIC50 as the negative decadic logarithm of the IC50, by convention in mol/L. High values mean a low IC50, low ones a high IC50.

In the assay the target is purified human COMT enzyme of the Val158 variant (membrane-bound MB-COMT) (Homo sapiens (Human), UniProt P21964). As to the kind of experiment: Esculetin or Fluorescence Polarization assay (MB-COMT). The format is biochemical. As for the experimental part:
Assays utilized purified human COMT enzyme of the Val158 variant (membrane-bound MB-COMT or soluble S-COMT) containing a C-terminal 6 or 10-histidine tag.
In a typical experiment the COMT inhibitory activity of the compounds of the present invention was determined in accordance with the following experimental methods detailed below. The fluorescence assay was based on methylation of a substrate (6,7-dihydroxycoumarin or ‘esculetin’) by COMT to produce a highly fluorescent product (7-hydroxy-6-methoxycoumarin or ‘scopoletin’). The reaction requires the presence of magnesium ions and a methyl donor, in this case S-adenosylmethionine (SAM). […] Recombinant enzyme was diluted in assay buffer (100 mM Na2HPO4 pH 7.4, 1 mM DTT, 0.005% Tween-20) and 35 μL was added to assay wells containing 1 μL of compound. Preincubation of COMT enzyme and compound proceeded for 2 hours at room temperature. Enzyme assays were initiated with 5 uL of a mixture containing 40 μM SAM (USB catalog # US10601), 4 μM esculetin (substrate) and 40 mM MgCl2. The formation of product (seopoletin) was monitored over time by fluorescence (excitation 340 nm, emission 460 nm, no lag, 100 μs integration time, 5 flashes, top read) using a Tecan Safire^2 plate reader. Assays were monitored over time until a signal to background of 4 to 1 was achieved. Titration curves and IC50 values were calculated using standard procedures. […] In some cases, compounds were not preincubated with MB-COMT for 2 hours at room temperature prior to starting the enzyme assays.
To determine IC50 values in the fluorescence polarization assay, solutions of test compounds were prepared and preincubated with COMT enzyme as stated above. […] After 25 minutes incubation at room temperature, reactions were quenched with 5 μL 250 mM EDTA, […]. To quenched reactions, 20 μL of a preformed complex containing S-adenosyl-L-cysteine (SAC) TAMRA tracer (2 mM from Ana spec diluted 1:80,000) and a 1:20 dilution of anti-S-adenosyl-L-homocysteine antibody (mouse monoclonal from Abbott Homocysteine detection kit, catalog #7D29-20) was prepared in assay buffer 11 (Na2HPO4 pH 7.2). Prior to combining with quenched enzyme assays, the SAH antibody/SAC TAMRA tracer complex was preformed at room temperature for 30 minutes while protected from light. Therefore, the final concentration of the SAH antibody/SAC TAMRA mix was 1:60 and 1:240,000, respectively. […] Titration curves and IC50 values were calculated using standard protocols.

The mark [1] stands for this setting: Esculetin or Fluorescence Polarization assay, Val158 variant.

In turn, `O=c1[nH]c(-c2cccc(C#Cc3ccccc3)c2)ncc1O` [Example 8] showed a negative-log IC50 (pIC50) under setting [1] of 6.23.

The molecule `COc1ccc(Oc2cccc(-c3ncc(O)c(=O)n3C)c2)cc1` [Example 5, 5-hydroxy-2-[3-(4-methoxyphenoxy)phenyl]-3-methylpyrimidin-4(3H)-one] gave a pIC50 of 7.03.

Consider `O=c1[nH]c(-c2ccc(C(F)(F)F)cc2)ncc1O` [Example 6, 5-Hydroxy-2-(4-trifluoromethyl-phenyl)-3H-pyrimidin-4-one], for which the negative-log IC50 (pIC50) is 6.68.

Take `Cn1c(-c2ccc(Cl)c(C(F)(F)F)c2)ncc(O)c1=O` [Example 1, 2-[4-chloro-3-(trifluoromethyl)phenyl]-5-hydroxy-3-methylpyrimidin-4(3H)-one]: the pIC50 under setting [1] was 6.74.
